Experimental data as given in patent EP3843702B1, “IMMEDIATE RELEASE FIXED-DOSE COMBINATION OF MEMANTINE AND DONEPEZIL” (Tecnimede, Sociedade Técnico-Medicinal, SA, priority 2019, dated 2020).

Conditions: in vivo

In the case of CC12CC3CC(C)(C1)CC(N)(C3)C2 [Memantine 20mg, 3,5-dimethyladamantan-1-amine], the “AUC 0→72 Point Estimate [%]” value is reported as 103.89% and the “Cmax Point Estimate [%]” value is reported as 101.40%.
